Results from the supplement of paper PMC4862054.

Key:
[1] = test system: CAL-120; details: 72 h
In short: (§1)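 The plates used were 384-well plates holding compound at 5 concentrations in 10-fold steps across a compound-specific 10,000-fold range, into which breast cancer cell lines were seeded in 20 µl suspension. Following 72 h incubation, CellTox Green fluorescence was read at 485/520 nm, and CellTiter-Glo luminescence was read after 10 min at room temperature. Normalisation on each plate used 0.1 % DMSO and a positive kill control. Dose-response curves gave the EC50, which was censored at the top concentration.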

[2] = test system: BT-474; details: 72 h
In short: as §1

[3] = test system: MDA-MB-436; details: 72 h
In short: as §1

[4] = test system: MDA-MB-453; details: 72 h
In short: as §1

[5] = test system: MFM-223; details: 72 h
In short: as §1

[6] = test system: SK-BR-3; details: 72 h
In short: as §1

[7] = test system: HCC1599; details: 72 h
In short: as §1

[8] = test system: HCC1937; details: 72 h
In short: as §1

[9] = test system: HDQ-P1; details: 72 h
In short: as §1

[10] = test system: Hs578T; details: 72 h
In short: as §1

[11] = test system: HCC1143; details: 72 h
In short: as §1

[12] = test system: CAL-148; details: 72 h
In short: as §1

[13] = test system: DU-4475; details: 72 h
In short: as §1

[14] = test system: CAL-85-1; details: 72 h
In short: as §1

[15] = test system: MDA-MB-231; details: 72 h
In short: as §1

[16] = test system: CAL-51; details: 72 h
In short: as §1

[17] = test system: BT-549; details: 72 h
In short: as §1

[18] = test system: MCF-10A; details: 72 h
In short: as §1

[19] = test system: MDA-MB-436; assay: drug sensitivity score (DSS), CellTiter-Blue viability (DSS (AUC-based score)); higher = stronger viability inhibition; extreme values may be limits of the assay; details: incubation time: 72 h
In short: (§2)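 Into 384-well plates carrying compound in a 5- or 9-concentration series went 20 µl of breast cancer cell suspension, followed by 72 h of incubation. Adding 2.5 µl CellTiter-Blue per well and incubating 2 h at 37 °C preceded fluorescence measurement at 560/590 nm. After normalisation of each plate to 0.1 % DMSO and a positive kill control, dose-response curves were fitted and the area beneath them taken as the drug sensitivity score.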

[20] = test system: HCC1599; assay: as above; details: incubation time: 72 h
In short: as §2

[21] = test system: HCC1937; assay: as above; details: incubation time: 72 h
In short: as §2

[22] = test system: CAL-148; assay: as above; details: incubation time: 72 h
In short: as §2

| SMILES | EC50, CellTiter-Glo [1] [nM] | EC50, CellTiter-Glo [2] [nM] | EC50, CellTiter-Glo [3] [nM] | EC50, CellTiter-Glo [4] [nM] | EC50, CellTiter-Glo [5] [nM] | EC50, CellTiter-Glo [6] [nM] | EC50, CellTiter-Glo [7] [nM] | EC50, CellTiter-Glo [8] [nM] | EC50, CellTiter-Glo [9] [nM] | EC50, CellTiter-Glo [10] [nM] | EC50, CellTiter-Glo [11] [nM] | EC50, CellTiter-Glo [12] [nM] | EC50, CellTiter-Glo [13] [nM] | EC50, CellTiter-Glo [14] [nM] | EC50, CellTiter-Glo [15] [nM] | EC50, CellTiter-Glo [16] [nM] | EC50, CellTiter-Glo [17] [nM] | EC50, CellTiter-Glo [18] [nM] | drug sensitivity score [19] | drug sensitivity score [20] | drug sensitivity score [21] | drug sensitivity score [22] |
| --- | --- | --- | --- | --- | --- | --- | --- | --- | --- | --- | --- | --- | --- | --- | --- | --- | --- | --- | --- | --- | --- | --- |
| CNC(=O)c1cccc(-c2ccc3c(N4CCOC[C@@H]4C)nc(N4CCOC[C@@H]4C)nc3n2)c1 [AZD2014] | 224 | 286 | 121 | 195 | 123 | 116 | 3620 | 285 | 120 | 459 | 366 | 395 | 1400 | 290 | 316 | 131 | 228 | 493 | – | – | – | – |
| O=C(/C=C/c1cccc(S(=O)(=O)Nc2ccccc2)c1)NO [Belinostat] | 634 | 458 | 1250 | 158 | 264 | 229 | 826 | 2180 | 2830 | 989 | 803 | 370 | 358 | 738 | 564 | 29.2 | 1010 | 1150 | 12.2 | 14.6 | 12.3 | 17.1 |
| CCOC(=O)CCNc1cc(N2CCc3ccccc3CC2)nc(-c2ccccn2)n1 [GSK-J4] | 12100 | 9140 | 4330 | 2960 | 7940 | 11600 | 9370 | 8340 | 11700 | 12200 | 8690 | 3440 | 7170 | 5180 | 6150 | 1340 | 1000 | 9270 | – | – | – | – |
| Cc1[nH]c2ccccc2c1CCNCc1ccc(/C=C/C(=O)NO)cc1 [Panobinostat] | 62.3 | 31.8 | 58.2 | 9.95 | 27.6 | 13.7 | 46.4 | 168 | 115 | 43.2 | 33.5 | 21 | 18.3 | 33.4 | 24.3 | 22.6 | 81.3 | 89.1 | 9.42 | 16.1 | 17.9 | 22.1 |
| COCC[n+]1c2c(n(Cc3cnccn3)c1C)C(=O)c1ccccc1C2=O [YM155] | 3.32 | 4.16 | 3.9 | 25.2 | 27.2 | 16.8 | 7.29 | 11.2 | 17.3 | 212 | 11.4 | 19.9 | 57.8 | 5.5 | 8.02 | 16.6 | 65.5 | 27.1 | 37.9 | 34 | 39.1 | 35.7 |
